Target: T1, HCV NS3 helicase NS3h_1b(con1) (Hepatitis C virus genotype 1b, UniProt Q9WMX2)
T1 construct: truncated C-terminally His-tagged NS3 proteins lacking the N-terminal protease, called NS3h; His-tag (C); made in house
Assay: MBHA screen of NCI mechanistic set library at 20 μM (percent inhibition, compound interference)
Type: biochemical
Settings: compounds at 20 μM; for Inh. (%) (Inhibition): calculated from Equation 1
How it was run: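 Molecular beacon-based DNA unwinding assay; compounds screened at 20 μM in triplicate, with DMSO-only negative and 500 nM dT20 positive controls. Fluorescence (ex 643/em 670 nm) was read before and 30 min after adding ATP to 1 mM. Percent inhibition came from the change relative to DMSO controls; interference from pre-ATP fluorescence versus DMSO controls.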

[1] = MBHA with DNA substrate, assay interference calculated with Equation 2
[2] = assay interference calculated with Equation 2 (fluorescence vs DMSO-only controls before ATP)

T1 sequence (Q9WMX2 1192-1657): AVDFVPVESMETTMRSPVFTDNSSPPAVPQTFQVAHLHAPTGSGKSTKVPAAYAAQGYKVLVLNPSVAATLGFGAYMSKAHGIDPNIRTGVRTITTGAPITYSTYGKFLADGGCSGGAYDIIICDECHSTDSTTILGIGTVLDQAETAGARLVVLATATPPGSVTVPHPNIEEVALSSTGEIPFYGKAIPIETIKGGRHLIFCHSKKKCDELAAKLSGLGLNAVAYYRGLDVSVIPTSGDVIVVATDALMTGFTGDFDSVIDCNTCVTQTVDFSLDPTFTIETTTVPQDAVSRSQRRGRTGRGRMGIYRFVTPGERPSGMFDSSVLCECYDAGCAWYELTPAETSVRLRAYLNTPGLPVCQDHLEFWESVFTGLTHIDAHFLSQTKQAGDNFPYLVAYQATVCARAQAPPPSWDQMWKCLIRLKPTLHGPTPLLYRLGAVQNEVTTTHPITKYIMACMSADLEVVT

| SMILES | Int.* (Ratio) (Interference) [1] | Inh. (%) (Inhibition) (MBHA with DNA substrate) | Inh. (%) (Inhibition) (MBHA with a DNA substrate) | Int.* (Ratio) (Interference) [2] |
| --- | --- | --- | --- | --- |
| C=CCOC1OC(CO[Si](C)(C)C(C)(C)C)C(OCc2ccccc2)C(OCc2ccccc2)C1OCc1ccccc1 (stereo not shown) [Compound 624953] | 0.90 | −7.5 | – | – |
| COC(=O)C1CCC(=O)N1C(c1ccc(OC)cc1)c1cc(OC)c(OC)c(OC)c1 (stereo not shown) [Compound 673622] | 1.08 | −9.6 | – | – |
| CC(C)c1cccc(O)c(=O)c1 [Compound 18804] | 0.97 | 15.2 | – | – |
| CCCCCC(/C=C/[C@@H]1CC(=O)C[C@H]1O[Si](C)(C)C(C)(C)C)OCOCCOC (stereo partly shown) [Compound 689228] | 1.04 | −10.4 | – | – |
| COc1nc(C(Cl)(Cl)Cl)c(Cl)c(OC)c1Cl [Compound 338720] | – | – | 7.0 | 0.93 |
| Cc1nc2c(nc1C)C(=O)c1ccccc1C2=O [Compound 602617] | 0.97 | 3.9 | – | – |
| CC1=Nc2ccccc2/C1=C\c1c(C)[nH]c2ccccc12 [Compound 76747] | 1.14 | −1.2 | – | – |
| COc1cc(C(O)CCBr)c(OC)cc1C (stereo not shown) [Compound 611750] | 0.94 | −8.1 | – | – |
| BrC(/C=N/Nc1nnc(-c2ccccc2)c(-c2ccccc2)n1)C(Br)c1ccccc1 (stereo not shown) [Compound 640638] | 0.93 | −7.0 | – | – |
| O=S(=O)(c1cccc(N=C=S)c1)c1cccc(N=C=S)c1 [Compound 140911] | 0.99 | 3.1 | – | – |
| CC(=O)OCCN1c2ccccc2Sc2cnccc21 [Compound 168221] | 0.96 | −12.6 | – | – |
| COc1ccc(/C=C\c2cc(OC)c(OC)c(OC)c2)cc1OP(=O)(O)O.N [Compound 643001] | – | – | −19.4 | 0.96 |
| CC1(C)CC(Nc2ccc(Nc3ccccc3)cc2)CC(C)(C)N1 [Compound 632536] | 0.84 | 20.7 | – | – |
| CCNC(=O)OCc1c(COC(=O)NCC)c(-c2ccc(Cl)c(Cl)c2)n2c1CCC2 [Compound 267700] | – | – | −24.0 | 1.04 |

More lines, now with the values ahead:

| Int.* (Ratio) (Interference) [1] | Inh. (%) (Inhibition) (MBHA with DNA substrate) | Inh. (%) (Inhibition) (MBHA with a DNA substrate) | Int.* (Ratio) (Interference) [2] | SMILES |
| --- | --- | --- | --- | --- |
| 1.17 | 2.3 | – | – | N#CC1CC(c2ccccc2)Nc2cc(Cl)ccc2N1 (stereo not shown) [Compound 155595] |
| – | – | −33.1 | 0.87 | N#Cc1ccccc1NC(=O)C(=O)C(C(=O)c1ccccc1F)C1OC(=O)c2ccccc21 (stereo not shown) [Compound 640974] |
| 0.78 | 2.4 | – | – | O=C([CH-]C(=O)C(F)(F)F)c1ccccc1.O=C([CH-]C(=O)C(F)(F)F)c1ccccc1.O=C([CH-]C(=O)C(F)(F)F)c1ccccc1.O=C([CH-]C(=O)C(F)(F)F)c1ccccc1.[Eu+3].c1ccncc1 [Compound 253995] |
| 0.91 | 71.1 | – | – | CCNCCCCNCCCCNCCCCNCCCCNCC.Cl [Compound 640506] |
| 1.00 | −18.3 | – | – | CCn1c(O)c(C=Nc2ccccc2)s/c1=N/Nc1ncc(CC(=O)Nc2ccccc2C)s1 [Compound 658350] |
| 0.92 | −13.1 | – | – | Cc1ccc2[c](c1)[Sn]([c]1ccccc1)([c]1ccccc1)[c]1cc(C)ccc1N2C [Compound 118030] |
| – | – | 12.0 | 1.04 | COC1CC(C)C(OC)c2cc(O)cc(c2O)NC(=O)/C(C)=C/C=C\C(C)C(OC(N)=O)/C(C)=C/C(C)C1OC (stereo not shown) [Compound 330500] |
| 1.06 | 12.4 | – | – | Nc1nc(N)c(-c2cccc(C(F)(F)F)c2)c(Cc2cccc(C(F)(F)F)c2)n1 [Compound 71669] |
| 0.93 | 0.8 | – | – | C/C(=N\NC(=S)N(C)C)c1ccccn1.[Cu][Br] [Compound 635448] |

From US9464064B2, “HCV helicase inhibitors and methods of use thereof” (University of Kansas, priority 2011, dated 2016)
